From patent US6399628B1, “N-(aryl/heteroaryl) amino acid esters, pharmaceutical compositions comprising same, and methods for inhibiting alpha- amyloid peptide release and/or its synthesis by use of such compounds” (Athena Neurosciences, Inc., priority 1996, dated 2002)

melting point: 81 to 83 °C
SMILES: CCOC(=O)C(CC)Nc1ccc2ccccc2c1 (stereo not shown) [Example 39, 2-[N-(naphth-2-yl)amino]butanoic acid ethyl ester]
